# Data as given in PMC11747885, “Potent inhibitors of the human RNA ligase Rlig1 highlights its role in RNA integrity maintenance under oxidative cellular stress” (Chemical Science, 2025).
# pEC50, pIC50: −log10 of the molar value. Values joined by “and” are separate entries in the source; they are usually repeats but may differ in a detail not shown here. Identical values can stand only once. “Also recorded” adds a separate entry of the source. Like-named read-outs stand apart in the source and are kept apart here.
# Key:
# Rlig1-AMP = target: T1, Rlig1-AMP (Homo sapiens, UniProt Q8N999); assay: Radioactive RNA ligation assay (hit validation, 10 µM test and IC50 determination); format: biochemical; details: for Product formation [%] of RNA ligation, Rlig1: three replicates
# T1 construct: made in house; host or cells: E. coli BL21 (DE3), pET15b-Rlig1
# HEK293 cells [1] = assay: Light-microscopy of inhibitor- and menadione-treated HEK293 cells; format: cell-based, human; details: 30 µM compound 24 h, then menadione 5 h
# HEK293 cells [2] = assay: Cell viability assay of HEK293 cells treated with inhibitors (CellTiter-Glo)
# in vitro = details: human
# HEK293 cells [3] = assay: RNA integrity analysis of HEK293 cells treated with inhibitors and menadione (TapeStation 28S/18S rRNA); format: cell-based, human; details: 30 μM compound 24 h
# [4] = target: T2, human DNA ligase 1 (hLig1) (Homo sapiens, UniProt P18858); assay: DNA ligation assay with hLig1 and 47 (compound titration); format: biochemical; details: for Product formation [%] of DNA ligation, hlig1: three replicates
# T2 construct: made in house; host or cells: E. coli Rosetta BL21 (DE3), pET28a-hLig1
# [5] = log(inhibitor) vs. response, variable slope (four parameters)
# [6] = Figure 5B, Sigmoidal, 4PL, fit Interrupted
# T1 sequence (Q8N999 whole entry): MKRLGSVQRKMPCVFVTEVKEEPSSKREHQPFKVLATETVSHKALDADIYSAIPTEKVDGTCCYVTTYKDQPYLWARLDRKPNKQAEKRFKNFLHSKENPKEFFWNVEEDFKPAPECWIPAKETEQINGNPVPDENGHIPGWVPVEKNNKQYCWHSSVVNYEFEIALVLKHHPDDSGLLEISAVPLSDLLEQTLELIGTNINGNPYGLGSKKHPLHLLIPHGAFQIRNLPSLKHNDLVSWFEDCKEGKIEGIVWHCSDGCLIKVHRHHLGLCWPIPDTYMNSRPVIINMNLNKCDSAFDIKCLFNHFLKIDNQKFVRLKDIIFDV
# T2 sequence (P18858 whole entry): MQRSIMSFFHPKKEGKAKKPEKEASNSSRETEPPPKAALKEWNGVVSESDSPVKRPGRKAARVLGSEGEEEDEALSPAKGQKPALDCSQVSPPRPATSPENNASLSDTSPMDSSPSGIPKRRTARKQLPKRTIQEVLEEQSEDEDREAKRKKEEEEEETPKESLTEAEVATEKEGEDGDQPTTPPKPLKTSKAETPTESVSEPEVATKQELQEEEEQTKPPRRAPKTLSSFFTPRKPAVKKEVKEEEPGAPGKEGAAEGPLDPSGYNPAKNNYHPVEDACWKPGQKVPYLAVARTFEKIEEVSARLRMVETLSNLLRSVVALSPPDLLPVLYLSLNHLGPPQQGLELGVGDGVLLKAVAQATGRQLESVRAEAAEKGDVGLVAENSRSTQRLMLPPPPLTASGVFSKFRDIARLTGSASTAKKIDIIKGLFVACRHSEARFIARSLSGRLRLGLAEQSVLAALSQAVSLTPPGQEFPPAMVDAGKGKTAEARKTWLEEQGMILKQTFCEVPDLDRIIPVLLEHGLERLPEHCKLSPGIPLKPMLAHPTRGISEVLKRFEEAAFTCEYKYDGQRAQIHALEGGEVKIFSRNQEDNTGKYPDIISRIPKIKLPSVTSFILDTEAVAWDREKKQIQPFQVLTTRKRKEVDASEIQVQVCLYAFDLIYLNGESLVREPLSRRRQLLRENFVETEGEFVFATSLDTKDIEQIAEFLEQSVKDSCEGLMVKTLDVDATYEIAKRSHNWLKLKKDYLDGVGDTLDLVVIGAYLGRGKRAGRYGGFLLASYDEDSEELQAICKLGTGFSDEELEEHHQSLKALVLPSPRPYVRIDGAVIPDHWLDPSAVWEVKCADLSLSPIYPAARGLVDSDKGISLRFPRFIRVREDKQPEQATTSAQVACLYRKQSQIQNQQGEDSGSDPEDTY
smiles,measurement,setting,value
Nc1nccc(Nc2ccc(NC(=O)c3ccc(Nc4ncnc5ccccc45)cc3)cc2)n1 [Compound 47],inhibition of Rlig1-AMP ligation (urea-PAGE),"Rlig1-AMP; 10 μM compound, 500 nM Rlig1-AMP, 20 min 37 °C",Ligation was inhibited; also recorded: inhibited Rlig1-AMP
same,"Bottom (best-fit value), Rlig1","Rlig1-AMP; Figure 5B, Sigmoidal, 4PL",1.324
same,"HillSlope (best-fit value), Rlig1","Rlig1-AMP; Figure 5B, Sigmoidal, 4PL",-6.786
same,"Span (best-fit value), Rlig1","Rlig1-AMP; Figure 5B, Sigmoidal, 4PL",68.62
same,"Top (best-fit value), Rlig1","Rlig1-AMP; Figure 5B, Sigmoidal, 4PL, X is log(concentration)",69.95
same,"LogIC50 (best-fit value), Rlig1","Rlig1-AMP; Figure 5B, Sigmoidal, 4PL, log of µM",0.6576
same,pIC50,"Rlig1-AMP; Figure 5B, Sigmoidal, 4PL, read-out: IC50 (best-fit value), Rlig1",5.34
same,HillSlope (best-fit value),Rlig1-AMP; four-parameter fit,6.82
same,Span (best-fit value),Rlig1-AMP; four-parameter fit,92.85
same,pIC50,"Rlig1-AMP; four-parameter fit, n = 3, read-out: IC50 (best-fit value)",5.34
same,"Product formation [%] of RNA ligation, Rlig1",Rlig1-AMP; log (47 [µM]) 0.273001,3.068% and 1.075% and 8.355%
same,"Product formation [%] of RNA ligation, Rlig1",Rlig1-AMP; log (47 [µM]) 0.574031,27.5278% and 13.8043% and 34.7122%
same,"Product formation [%] of RNA ligation, Rlig1",Rlig1-AMP; log (47 [µM]) 0.875061,98.3243% and 92.1834% and 95.246%
same,"Product formation [%] of RNA ligation, Rlig1",Rlig1-AMP; log (47 [µM]) 1.17609,100% and 96.1318% and 97.0084%
same,"Product formation [%] of RNA ligation, Rlig1",Rlig1-AMP; log (47 [µM]) 1.47712,100% and 98.2475% and 98.511%
same,"Product formation [%] of RNA ligation, Rlig1",Rlig1-AMP; log (47 [µM]) -0.0280287,6.829% and 0.6969% and 9.287%
same,"Product formation [%] of RNA ligation, Rlig1",Rlig1-AMP; log (47 [µM]) -0.329059,4.933% and 0% and 8.486%
same,"Product formation [%] of RNA ligation, Rlig1",Rlig1-AMP; log (47 [µM]) -0.630089,7.315% and 6.312% and 9.428%
same,inhibition at 30 µM,"Rlig1-AMP; log Compound [µM] 1.47712, replicates I-III, read-out: percentage inhibition (dose response curve for IC50)",100%
same,inhibition at 0.234375 µM,"Rlig1-AMP; log Compound [µM] -0.630089, replicates I-III, read-out: percentage inhibition (dose response curve for IC50)",7.32%
same,LogIC50 (best-fit value),"Rlig1-AMP; log of µM, four-parameter fit",0.6569
same,Bottom (best-fit value),Rlig1-AMP; [5],5.434
same,Top (best-fit value),Rlig1-AMP; [5],98.28
same,pIC50,"Rlig1-AMP; radioactive ligation assay, 500 nM Rlig1-AMP, 20 min 37 °C, n = 3, read-out: IC50",5.34
same,cell morphology,HEK293 cells [1],poor adherence and cell shrinkage
same,cytotoxicity (in words),"HEK293 cells [2]; HEK293, 24 h, up to 30 μM",no detectable cytotoxicity
same,IC50 (Figure 3D: EC50 values for plot; log(inhibitor) vs. response -- Variable slope (four parameters)),"HEK293 cells [2]; HEK293 cell viability, fit per plate (3 plates, 4 technical replicates each), highest tested concentration 30 µM",163.557 µM and 35.63 µM and 278.968 µM
same,LogIC50 (log(inhibitor) vs. response -- Variable slope (four parameters)),"HEK293 cells [2]; HEK293 cell viability, fit per plate (3 plates, 4 technical replicates each), log of [µM]",2.214 and 1.552 and 2.446
same,pEC50,"HEK293 cells [2]; Homo sapiens, HEK293, 24 h",< 4.52
same,"viability at 24 h, 0.234375 µM",in vitro,109%
same,"viability at 24 h, 0.46875 µM",in vitro,101%
same,"viability at 24 h, 0.9375 µM",in vitro,102%
same,"viability at 24 h, 1.875 µM",in vitro,102%
same,"viability at 24 h, 3.75 µM",in vitro,97.2%
same,"viability at 24 h, 7.5 µM",in vitro,97.9%
same,"viability at 24 h, 15 µM",in vitro,93%
same,"viability at 24 h, 30 µM",in vitro,86%
same,28S/18S ratio,HEK293 cells [3]; Menadione 0 μM,3.0
same,28S/18S ratio,HEK293 cells [3]; Menadione 40 μM 5 h,2.1
same,28S/18S ratio,HEK293 cells [3]; Menadione 60 μM 5 h,0.9
same,effect on DNA ligase activity (in words),"[4]; 1:2 dilution series starting from 30 μM compound, 500 nM hLig1, 20 min 37 °C",No effect
same,"Bottom (best-fit value), hlig1",[4]; [6],-4.954
same,"HillSlope (best-fit value), hlig1",[4]; [6],-3.033
same,"Span (best-fit value), hlig1",[4]; [6],97.9
same,"Top (best-fit value), hlig1",[4]; [6],92.94
same,"LogIC50 (best-fit value), hlig1","[4]; Figure 5B, Sigmoidal, 4PL, fit Interrupted, log of µM",1.72
same,"Product formation [%] of DNA ligation, hlig1",[4]; log (47 [µM]) 0.273001,-3.458% and -4.463% and -2.953%
same,"Product formation [%] of DNA ligation, hlig1",[4]; log (47 [µM]) 0.574031,-2.567% and -4.108% and -2.802%
same,"Product formation [%] of DNA ligation, hlig1",[4]; log (47 [µM]) 0.875061,-2.276% and -3.138% and -3.06%
same,"Product formation [%] of DNA ligation, hlig1",[4]; log (47 [µM]) 1.17609,0.5458% and -2.902% and -1.203%
